From the NIST ThermoML archive (doi:10.1016/j.jct.2018.12.036)
± gives the expanded uncertainty stated by the source.

Details: Plate method

Row | surface tension liquid-gas (293.15 K) [mN/m] | surface tension liquid-gas (298.15 K) [mN/m] | surface tension liquid-gas (303.15 K) [mN/m] | surface tension liquid-gas (308.15 K) [mN/m] | surface tension liquid-gas (313.15 K) [mN/m] | surface tension liquid-gas (318.15 K) [mN/m] | surface tension liquid-gas (323.15 K) [mN/m] | SMILES
1 | 44.56 ± 0.46 | 44.32 ± 0.46 | 44.11 ± 0.46 | 43.88 ± 0.46 | 43.63 ± 0.46 | 43.42 ± 0.46 | 43.18 ± 0.45 | CCCCn1cc[n+](C)c1.F[P-](F)(F)(F)(F)F [1-butyl-3-methylimidazolium hexafluorophosphate]
2 | 44.75 ± 0.46 | 44.52 ± 0.46 | 44.16 ± 0.46 | 43.95 ± 0.46 | 43.63 ± 0.46 | 43.34 ± 0.46 | 42.98 ± 0.45 | CCCCn1cc[n+](C)c1.F[B-](F)(F)F [1-butyl-3-methylimidazolium tetrafluoroborate]

Row | SMILES | surface tension liquid-gas (293.15 K) [mN/m] | surface tension liquid-gas (298.15 K) [mN/m] | surface tension liquid-gas (303.15 K) [mN/m] | surface tension liquid-gas (308.15 K) [mN/m] | surface tension liquid-gas (313.15 K) [mN/m] | surface tension liquid-gas (318.15 K) [mN/m] | surface tension liquid-gas (323.15 K) [mN/m]
3 | CCCC[n+]1ccn(C)c1.O=S(=O)([N-]S(=O)(=O)C(F)(F)F)C(F)(F)F | 33.29 ± 0.43 | 33.07 ± 0.43 | 32.88 ± 0.43 | 32.67 ± 0.43 | 32.49 ± 0.43 | 32.29 ± 0.43 | 32.11 ± 0.43
